The record followed here is patent publication US20200377459A1, “CHARGED ION CHANNEL BLOCKERS AND METHODS FOR USE” (President and Fellows of Harvard College, priority 2015, published 2020).

The target of one data set is T1, human Nav1.7 channels (Homo sapiens, UniProt Q15858).
T1 construct: expressed in transfected cells
Nature of the data set: Whole-cell patch clamp, use-dependent block of sodium current, drug applied intracellularly or externally. In kind it is cell-based. As to the method: Whole-cell recordings were made of currents carried by voltage-activated channels in HEK293 cells stably expressing human Nav1.7 channels. Recordings were made using patch pipettes with resistances of 2-3.5 MQ when filled with internal solution, consisting of 61 mM CsF, 61 mM CsCl, 9 mM NaCl, 1.8 mM MgCl2, 9 mM EGTA, 14 mM creatine phosphate (tris salt), 4 mM MgATP, and 0.3 mM GTP (tris salt), 9 mM HEPES, pH adjusted to 7.2 with CsOH. The shank of the electrode was wrapped with Parafilm in order to reduce capacitance and allow optimal series resistance compensation without oscillation. Seals were obtained and the whole-cell configuration established with cells in Tyrode's solution (155 mM NaCl, 3.5 mM KCl, 1.5 mM CaCl2), 1 mM MgCl2, 10 mM HEPES, 10 mM glucose, pH adjusted to 7.4 with NaOH) with 10 mM TEACl. To ensure complete dialysis with pipette solution, recordings began after 5 to 10 min after establishment of the whole-cell configuration.
Currents were recorded at room temperature (21-23° C.) with an Axopatch 200 amplifier and filtered at 5 kHz with a low-pass Bessel filter. The amplifier was tuned for partial compensation of series resistance (typically 70-80% of a total series resistance of 4-10 MO). Currents were digitized using a Digidata 1322A data acquisition interface controlled by pClamp9.2 software (Axon Instruments) and analyzed using programs written in Igor Pro 4.0 (Wavemetrics, Lake Oswego, Oreg.). Currents were corrected for linear capacitative and leak currents determined using 5 mV hyperpolarizations delivered from the resting potential (usually −80 or −100 mV) and then appropriately scaled and subtracted.
Sodium currents were evoked by 30-msec depolarizations from −100 mV to −20 mV. To assay use-dependent block, pulses were delivered at series of increasing rates: 0.05 Hz for 1-min, 0.33 Hz for 1-min, 1 Hz for 1-min, 3 Hz for 1-min, 5 Hz for 30 seconds, 10 Hz for 30 seconds, with 1 minute rest between each series of pulses. After the series of pulses to induce use-dependent block, the time course of recovery was followed using pulses delivered at 01. Hz (2-min) and 0.05 Hz (1-min).
To induce use-dependent block, the depolarizations were delivered by series of increasing rates: 0.05 Hz for 1-min, 0.33 Hz for 1-min, 1 Hz for 1-min, 3 Hz for 1-min, 5 Hz for 30 seconds, 10 Hz for 30 seconds, with 1 minute rest between each series of pulses. After the series of pulses to induce use-dependent block, the time course of recovery was followed using pulses delivered at 01. Hz (2-min) and 0.05 Hz (1-min). Peak sodium current was plotted as a function of experimental time (1-min per division on the time axis).
For orientation: Patch clamp records ionic current or voltage across a cell membrane.

The test system of data set [1] is CFA-induced thermal hyperalgesia. In words: CFA-induced thermal hyperalgesia (Hargreaves radiant heat, hind paw). In kind it is in vivo. The settings on record: mice, intraplantar co-injection with CFA, 1%. As to the method:
FIGS. 2A-2D show reversal of CFA-induced thermal hyperalgesia by charged sodium channel blockers. FIGS. 2A and 2C show time course (0, 1, 6, and 24 hours) of changes in thermal nociceptive sensitivity measured as response latency (seconds) to a constant radiant heat source applied to the plantar surface of hind paw in mice co-treated with 20 μL (injected in the left hindpaw) of CFA (50% emulsion) and saline, and when the CFA was co-applied with QX-314 (1%, hollow square), N-ethyl etidocaine (Compound 21, 1%; dark square), or ACS8180-3B (Compound 3, 1%; solid triangle). FIGS. 2B and 2D show the nociceptive heat pain response time before CFA treatment and after treatment with the different compounds 1 hour post CFA injection. The data are means±SEM of 8-16 mice per group. The statistical comparison with pre-CFA (*) and with CFA+Vehicle (+) is indicated by +P<0.05; ++P<0.01 and +++,*** P<0.001. All procedures were approved by the Institutional Animal Care and Use Committees. Mice and rats were housed in standard environmental conditions (12-h light/dark cycle; 23° C.; food and water ad libitum) at facilities accredited by the Association for Assessment and Accreditation of Laboratory Animal Care. 8-week old male BALB/c (stock number: 001026) and C57BL/6J (stock number 000664) mice were purchased from Jackson Laboratory and respectively used in allergic airway inflammation (FIG. 5) and pain hypersensitivity model (FIGS. 2A-2D). 6-week old male Sprague-Dawley (stock number: 400) rats, 150±25 grams, were purchased from Charles River laboratory and used to assess pain hypersensitivity (FIG. 3). The compounds were injected in the plantar surface of each animal's right hind paw in 10 μl (mice) or 50 μl (rats) volume of 1:1 emulsion of Complete Freund's Adjuvant (CFA). […] On the 4th day, their thermal nociceptive threshold was evaluated. […] Impact of treatment was analyzed 1 h prior and 1, 3, 6 and 24 h post-treatment. […] With each reading the apparatus was set with a cut-off time of 32 s.

Data set [2] has as its system ATF3 expression in dorsal root ganglion. Nature of the data set: ATF3 immunofluorescence in dorsal root ganglion (neurotoxicity). In kind it is in vivo. The settings on record: mice, hindpaw injection CFA+NEE 1%, 20 μl, 8 weeks earlier. As to the method:
Representative picture of ATF3 (dark shading, FIGS. 4A-4C) expression in mice dorsal root ganglion slice exposed 8 weeks earlier to an acute hindpaw injection of CFA+N-ethyl-etidocaine (Compound 21) (1%, 20 μl).
Upon harvesting, the dorsal root ganglia were fixed overnight in 4% para-formaldehyde, washed in PBS and cryoprotected by sequential sucrose immersion (PBS 10-30% sucrose, Overnight). Ganglia were mounted in O.C.T. (Tissue-tek), and serially cut in 20 μm coronal sections with a cryostat. The sections were thaw-mounted on Fisherbrand superfrost microscopy slides and kept at −80° C. On the day of the experiment, sections were thawed at room temperature for 10 min. Sections were washed in PBS for 5 min, blocked for 1 h at room temperature (PBS, 0.1% Triton X-100, 5% BSA) and exposed to the primary antibodies (Overnight, 4° C.), namely rabbit anti-mouse ATF3 (Sigma, # HPA001562). Sections were then washed three times in PBS (5 min), exposed to the secondary antibodies and DAPI (1:2000. Sigma, # D9542) (2 h, dark), washed, coverslipped with Vectashield (Vector Labs) and observed under confocal microscope ([…], LSM-710).
To evaluate if such toxicity occurred with NEE (Compound 21), mice were injected with a combination of CFA+NEE (1%) 8 weeks prior to DRG extraction.

Entries after “also recorded” stand apart in the source; their conditions may differ.

T1 sequence (Q15858 whole entry): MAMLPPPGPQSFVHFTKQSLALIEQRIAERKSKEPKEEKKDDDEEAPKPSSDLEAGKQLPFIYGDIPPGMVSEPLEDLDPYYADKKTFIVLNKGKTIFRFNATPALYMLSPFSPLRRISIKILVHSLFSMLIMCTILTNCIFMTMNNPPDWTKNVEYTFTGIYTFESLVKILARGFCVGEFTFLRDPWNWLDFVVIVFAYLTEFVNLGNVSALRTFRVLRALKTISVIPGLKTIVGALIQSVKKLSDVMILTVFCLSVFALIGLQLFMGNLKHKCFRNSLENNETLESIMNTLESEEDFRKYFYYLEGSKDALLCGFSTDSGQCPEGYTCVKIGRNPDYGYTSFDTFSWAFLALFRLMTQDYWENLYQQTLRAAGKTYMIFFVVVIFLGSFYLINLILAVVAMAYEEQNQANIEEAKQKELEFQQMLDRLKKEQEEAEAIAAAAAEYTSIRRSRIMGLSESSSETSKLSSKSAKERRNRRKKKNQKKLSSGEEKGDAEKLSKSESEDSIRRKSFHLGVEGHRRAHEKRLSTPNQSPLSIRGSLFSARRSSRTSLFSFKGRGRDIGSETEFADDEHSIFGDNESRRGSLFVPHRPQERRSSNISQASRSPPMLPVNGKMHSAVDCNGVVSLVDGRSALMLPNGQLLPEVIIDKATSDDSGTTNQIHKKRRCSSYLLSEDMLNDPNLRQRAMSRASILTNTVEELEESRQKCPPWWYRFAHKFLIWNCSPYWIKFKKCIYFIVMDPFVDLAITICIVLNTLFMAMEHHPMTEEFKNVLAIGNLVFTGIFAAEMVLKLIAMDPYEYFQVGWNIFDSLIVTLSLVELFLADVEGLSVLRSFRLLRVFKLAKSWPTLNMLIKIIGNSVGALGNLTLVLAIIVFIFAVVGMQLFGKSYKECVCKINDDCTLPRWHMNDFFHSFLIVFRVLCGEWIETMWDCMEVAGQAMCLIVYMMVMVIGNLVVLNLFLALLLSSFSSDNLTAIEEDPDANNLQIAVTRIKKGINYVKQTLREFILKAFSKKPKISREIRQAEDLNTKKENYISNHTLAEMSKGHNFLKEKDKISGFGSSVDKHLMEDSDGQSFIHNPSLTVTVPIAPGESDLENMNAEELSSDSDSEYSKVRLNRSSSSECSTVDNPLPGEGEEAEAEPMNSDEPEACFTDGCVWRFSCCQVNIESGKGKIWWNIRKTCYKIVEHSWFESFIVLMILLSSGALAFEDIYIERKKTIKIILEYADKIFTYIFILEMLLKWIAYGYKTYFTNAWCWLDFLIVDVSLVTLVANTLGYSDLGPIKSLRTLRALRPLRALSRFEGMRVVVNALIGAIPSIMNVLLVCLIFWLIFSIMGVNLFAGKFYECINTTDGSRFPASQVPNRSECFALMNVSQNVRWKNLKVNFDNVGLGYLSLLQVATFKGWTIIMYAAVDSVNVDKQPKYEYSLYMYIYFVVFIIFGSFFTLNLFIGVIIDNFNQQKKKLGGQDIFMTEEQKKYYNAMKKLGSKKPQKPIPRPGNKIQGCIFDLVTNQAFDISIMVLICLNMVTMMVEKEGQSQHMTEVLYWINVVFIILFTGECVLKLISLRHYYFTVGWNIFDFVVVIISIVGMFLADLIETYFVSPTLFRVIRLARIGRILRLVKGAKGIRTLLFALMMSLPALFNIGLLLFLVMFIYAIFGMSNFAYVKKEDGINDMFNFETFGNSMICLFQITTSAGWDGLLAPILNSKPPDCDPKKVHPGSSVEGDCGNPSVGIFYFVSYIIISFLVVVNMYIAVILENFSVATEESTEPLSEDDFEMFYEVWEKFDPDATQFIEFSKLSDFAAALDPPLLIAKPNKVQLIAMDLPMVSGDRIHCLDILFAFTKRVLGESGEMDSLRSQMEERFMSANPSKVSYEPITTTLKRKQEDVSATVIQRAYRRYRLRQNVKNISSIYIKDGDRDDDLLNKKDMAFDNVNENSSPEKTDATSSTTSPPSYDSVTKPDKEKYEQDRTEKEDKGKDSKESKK

With `CC[N+](CC)(CC)CC(=O)Nc1c(C)cccc1C` [QX-314, reference compound], the “use dependent accumulation of block” value at human Nav1.7 channels (100 micromolar inside cell, stimulation frequencies from 1 to 10 Hz) is “strong use dependent accumulation of block”. Also, in data set [1], the “reversal of CFA-induced thermal hyperalgesia” value is listed as “reversed”.

What is called inhibition is the change of the read-out against control, counted positive when it falls. As for `CCC[N+](CC)(CC)C(CC)C(=O)Nc1c(C)cccc1C` (stereo not drawn) [Compound 21, N-ethyl etidocaine], on human Nav1.7 channels, 100 µM produced 97% inhibition. Besides, the “reversal of CFA-induced thermal hyperalgesia” value in data set [1] is listed as “reversed; also recorded: potent blockade”. Further, the “neurotoxicity: ATF3 expression in DRG” value in data set [2] is “does not induce neurotoxicity”; in data set [2] (listed as NEE), “No ATF3 expression was observed”.
